The assay concerns the target T1, eIF3d and eIF4G2 complex (Homo sapiens, UniProt O15371).
T1 construct: both recombinant from E. coli, 6xHis tags cut by TEV; full-length human eIF4G2; with Eukaryotic translation initiation factor 4 gamma 2
Briefly: fluorescence anisotropy competition with fluorescein-labelled m7G-capped […]'UTR RNA. It counts as binding. Particulars: 20 mM Hepes-KOH pH 7.5, 100 mM KCl, 1 mM MgCl2, 25 C, cap analog competing with 10 nM capped CD101, ITGAE or ACTB RNA, m7GDP concentration not given, ligand site assigned to the eIF3d c.

T1 sequence (O15371 whole entry): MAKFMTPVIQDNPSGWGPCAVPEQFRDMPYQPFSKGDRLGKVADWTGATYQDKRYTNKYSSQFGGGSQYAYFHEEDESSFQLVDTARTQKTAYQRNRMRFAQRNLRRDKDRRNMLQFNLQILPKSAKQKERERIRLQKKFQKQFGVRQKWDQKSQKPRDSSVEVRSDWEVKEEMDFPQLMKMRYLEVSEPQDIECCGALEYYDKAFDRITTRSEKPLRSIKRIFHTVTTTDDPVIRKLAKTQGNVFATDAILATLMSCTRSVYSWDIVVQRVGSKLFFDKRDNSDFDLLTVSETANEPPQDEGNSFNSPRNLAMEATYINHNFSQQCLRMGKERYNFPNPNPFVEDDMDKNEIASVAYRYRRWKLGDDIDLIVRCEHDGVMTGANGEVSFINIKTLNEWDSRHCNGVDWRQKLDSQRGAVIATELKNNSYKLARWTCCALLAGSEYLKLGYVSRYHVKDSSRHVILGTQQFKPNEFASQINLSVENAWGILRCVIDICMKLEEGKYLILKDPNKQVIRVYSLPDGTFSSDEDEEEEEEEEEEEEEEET
T1 sequence (P78344 whole entry partner): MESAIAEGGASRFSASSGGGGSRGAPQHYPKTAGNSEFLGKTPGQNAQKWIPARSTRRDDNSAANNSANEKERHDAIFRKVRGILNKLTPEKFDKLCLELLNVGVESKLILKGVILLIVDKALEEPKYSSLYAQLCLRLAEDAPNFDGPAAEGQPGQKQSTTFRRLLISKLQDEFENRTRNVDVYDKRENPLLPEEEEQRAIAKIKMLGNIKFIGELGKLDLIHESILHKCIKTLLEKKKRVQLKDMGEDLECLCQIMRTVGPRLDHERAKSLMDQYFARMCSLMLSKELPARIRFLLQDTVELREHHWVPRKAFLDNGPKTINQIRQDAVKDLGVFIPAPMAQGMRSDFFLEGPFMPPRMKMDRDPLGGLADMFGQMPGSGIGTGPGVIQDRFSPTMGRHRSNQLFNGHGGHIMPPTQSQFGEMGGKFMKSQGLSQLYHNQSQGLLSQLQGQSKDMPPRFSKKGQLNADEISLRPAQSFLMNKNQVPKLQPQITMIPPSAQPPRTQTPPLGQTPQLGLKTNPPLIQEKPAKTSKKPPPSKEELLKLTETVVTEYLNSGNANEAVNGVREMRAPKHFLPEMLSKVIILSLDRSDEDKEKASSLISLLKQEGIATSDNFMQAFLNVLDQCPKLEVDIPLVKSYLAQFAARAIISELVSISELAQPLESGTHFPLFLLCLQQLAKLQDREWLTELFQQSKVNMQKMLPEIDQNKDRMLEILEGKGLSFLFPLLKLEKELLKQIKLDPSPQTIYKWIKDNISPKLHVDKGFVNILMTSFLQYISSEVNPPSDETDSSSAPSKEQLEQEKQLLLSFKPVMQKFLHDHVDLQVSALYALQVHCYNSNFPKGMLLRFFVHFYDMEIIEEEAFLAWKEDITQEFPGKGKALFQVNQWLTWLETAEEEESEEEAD

For `C[n+]1cn([C@@H]2O[C@H](COP(=O)(O)OP(=O)(O)O)[C@@H](O)[C@H]2O)c2nc(N)[nH]c(=O)c21` [m^7GDP], the “fluorescence anisotropy competition with fluorescein-labelled m7G-capped 5'UTR R” value is “reduction in the binding affinity of the eIF3d/eIF4G2 complex to the m^7G cap was also observed”.

Values taken from article PMC11968281, “eIF3d and eIF4G2 mediate an alternative mechanism of cap-dependent but eIF4E-independent translation initiation” (The Journal of Biological Chemistry, 2025).
